{
  "source": "patent US4556677A",
  "about": "“Alkane and alkene derivatives and their use” (Farmos Group Ltd., priority 1981, dated 1985)",
  "key": {"immature mouse uterus [1]": {"test_system": "immature mouse uterus", "experiment": "estrogenic effect in vivo, immature mouse uterus weight", "description": "(§1) The estrogen-antiestrogen (progesterone-antiprogesterone) effect in vivo was determined as follows:\nThe estrogenic properties of the molecules were determined by administering the molecules, suspended in sesam oil, subcutaneously to 21 days old immature mice on three consecutive days. The mice were killed on the fourth day and the uterus was weighed. Estradiol (positive control) increases the weight of the uterus. The weight correlates with the estrogenic effect of the molecules.\nThe estrogenic effect of compounds of the invention as measured by their ability to increase the weight of immature mouse uterus was usually far less than that of oestradiol, the positive control. […] At the dose of 0.5 mg/kg the oestrogenic effect of compound 1, 7 and 8 were respectively 20%, 75% and 83% less and at the dose of 5 mg/kg the oestrogenic effect of compound 2 was 60% less than that of oestradiol 0.05 mg/kg.\n(§2) In Table 2 a summary of the oestrogenic/antioestrogenic and progestanic/antiprogestanic effect of some of the compounds can be seen. The percentages refer to increase/reduction in mice uterus weights."}, "[2]": {"test_system": "MCF-7 human mammary adenocarcinoma cell line", "experiment": "anti-tumour effect in vitro, growth of MCF-7 cells (bioluminescence ATP assay)", "type": "cell-based", "settings": "Homo sapiens, MCF7; MCF-7, Table 3; read-out: Antitumour effect (IC50 = concentration of compound where 50% inhibition of cell growth could be seen)", "description": "The anti-tumour effect was studied in vitro as follows:\nThe growth of MCF-7 cell line (human mammary adenocarcinoma, known to be estrogen-dependent) was evaluated in the presence or absence of estradiol, medroxyprogesterone acetate or the molecules to be investigated. Combinations of molecule plus estradiol and molecule plus medroxyprogesterone were also studied. The amount of living cells after 4 h, 24 h and 48 h incubations were determined by bioluminescence assay (intracellular ATP determination).\nThe antitumour effects of the compounds had been tested in vitro against MCF-7 human mammary adenocarcinoma cell line and in vivo against DMBA-induced rat mammary adenocarcinomas and transplantable mammary adenocarcinoma.\nIn table 3 the antitumour effects of certain compounds can be seen."}, "immature mouse uterus [3]": {"test_system": "immature mouse uterus", "experiment": "antiestrogenic effect in vivo, inhibition of oestradiol induced uterus weight increase in immature mice", "description": "as §1\nThe antiestrogenic effects of the molecules were determined in a similar manner in immature mice. In this case, the ability of the molecules to inhibit estrogen-induced uterus weight increase was investigated, too.\nThe compound 1 at a dose of 0.5 mg/kg caused a 50% inhibition of oestradiol induced effect on mouse uterus.\nas §2"}, "mouse uterus [4]": {"test_system": "mouse uterus", "experiment": "antiprogestanic/synergistic effect in vivo, given together with medroxyprogesterone acetate, mouse uterus weight", "description": "as §1\n(§3) The (anti)progestanic effects were studied in a similar manners as the estrogenic ones. Medroxyprogesterone acetate, which decreases uterus weight, was used as reference.\n(§4) The progestanic and antiprogestanic effects of compounds were measured as described earlier. The compound No. 2 reduced the weight of mouse uterus by 49% compared to control while medroxyprogesterone acetate gave 40% reduction.\nas §2"}, "estrogen receptors": {"molecular_target": "T1, estrogen receptors (Rattus norvegicus, UniProt P06211)", "T1 construct": "rat uterus cytosol preparation; from tissue; host or cells: rat uterus cytosol", "T1 sequence (P06211 1-600)": "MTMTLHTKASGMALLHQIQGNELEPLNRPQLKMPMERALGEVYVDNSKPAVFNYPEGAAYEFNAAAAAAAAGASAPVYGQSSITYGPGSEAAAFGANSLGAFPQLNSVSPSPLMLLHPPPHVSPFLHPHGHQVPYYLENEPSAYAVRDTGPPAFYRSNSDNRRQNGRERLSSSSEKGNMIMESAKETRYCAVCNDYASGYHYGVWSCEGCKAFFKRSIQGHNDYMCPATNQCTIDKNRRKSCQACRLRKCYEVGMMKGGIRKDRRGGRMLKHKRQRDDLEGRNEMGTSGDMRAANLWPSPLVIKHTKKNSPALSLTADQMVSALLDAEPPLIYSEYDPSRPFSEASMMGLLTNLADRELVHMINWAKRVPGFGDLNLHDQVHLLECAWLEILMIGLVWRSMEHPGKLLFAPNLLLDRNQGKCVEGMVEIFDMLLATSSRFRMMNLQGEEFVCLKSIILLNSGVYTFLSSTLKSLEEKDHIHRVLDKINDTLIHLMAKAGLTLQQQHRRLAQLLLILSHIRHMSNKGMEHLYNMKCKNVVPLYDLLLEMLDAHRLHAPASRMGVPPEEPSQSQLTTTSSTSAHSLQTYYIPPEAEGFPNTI", "experiment": "affinity to estrogen receptors, competition with 3H-labelled 17-β-estradiol (dextran-charcoal method)", "type": "binding", "settings": "rat uterus cytosol, Table 1; read-out: Affinity (concentration of compound where 50% competition (inhibition) with 3H-estradiol occurred)", "description": "The affinity to estrogen receptors was determined by the ability of the molecules to compete with ^3 H-labelled 17-β-estradiol in rat uterus cytosol preparation. After incubation, receptor-bound and receptor-unbound ligands were separated by a known dextrancharcoal method. (Korenman, S. G.: \"Comparative binding affinity of estrogens and its relation to estrogenic potency\". Steroids 13: 163-177, 1969). […] The results in table 1 are shown as follows: | with ^3 H--estradiol occurred"}, "mouse uterus [5]": {"test_system": "mouse uterus", "experiment": "antiprogestanic/synergistic effect in vivo, given together with medroxyprogesterone acetate, mouse uterus weight", "settings": "vs 20% for the acetate alone"}, "mouse uterus [6]": {"test_system": "mouse uterus", "experiment": "progestanic effect in vivo, reduction of mouse uterus weight", "settings": "given alone", "description": "as §1, §3, §4, §2"}},
  "data": [
    {"smiles": "CC/C(=C(\\c1ccccc1)c1ccc(OCCN(CC)CC)cc1)C1CCCC1", "note": "[Compound 8, (Z)-2-cyclopentyl-1-[p-(N,N-diethyl-2-aminoethoxy)phenyl]-1-phenyl-1-butene]", "values": [
      {"measurement": "oestrogenic effect, % less than that of oestradiol 0.05 mg/kg", "setting": "immature mouse uterus [1]; 0.5 mg/kg, s.c., immature mice", "result": 83, "unit": "%"},
      {"measurement": "estrogenic effect (in words)", "setting": "immature mouse uterus [1]; immature mouse uterus weight", "result": "dose dependent"},
      {"measurement": "estrogenic effect at increased doses (in words)", "setting": "immature mouse uterus [1]; increased doses (above 0.05 mg/kg), given alone", "result": "the estrogenic effect became evident"},
      {"measurement": "IC50", "setting": "[2]", "result": "1 to 5", "unit": "µM"},
      {"measurement": "inhibition of oestradiol induced effect on mouse uterus", "setting": "immature mouse uterus [3]; 5 mg/kg", "result": 30, "unit": "%"},
      {"measurement": "Given with oestradiol: reduction in mice uterus weight", "setting": "immature mouse uterus [3]; Table 2, 5 mg/kg, with oestradiol 0.05 mg/kg", "result": 32, "unit": "%"},
      {"measurement": "Given with medroxyprogesterone acetate: reduction in mice uterus weight", "setting": "mouse uterus [4]; Table 2, 0.5 mg/kg, with medroxyprogesterone acetate 0.06 mg/kg", "result": 16, "unit": "%"},
      {"measurement": "effect with medroxyprogesterone acetate at higher doses (in words)", "setting": "mouse uterus [4]; higher doses, together with medroxyprogesterone acetate", "result": "an antiprogestanic effect was achieved"},
      {"measurement": "antiprogestanic / synergistic effect with medroxyprogesterone acetate (in words)", "setting": "mouse uterus [4]; together with medroxyprogesterone acetate", "result": "neither synergism nor inhibition of medroxyprogesterone acetate was seen"},
      {"measurement": "IC50", "setting": "estrogen receptors", "result": "0.1 to 1", "unit": "µM"},
      {"measurement": "decrease in the weight of mouse uterus together with medroxyprogesterone acetate", "setting": "mouse uterus [5]", "result": 16, "unit": "%"},
      {"measurement": "progestanic effect (in words)", "setting": "mouse uterus [6]; 0.05 mg/kg", "result": "could be considered to be a progestanic one"},
      {"measurement": "decrease in uterus weight", "setting": "mouse uterus [6]; 0.05 mg/kg (lowest dose)", "result": 12, "unit": "%"}
    ]}
  ]
}
